Laboratory results reported in the Bradley open melting point set (2014).
Values joined by “and” are separate entries in the source; they are usually repeats but may differ in a detail not shown here. Equal values may be shown once. Where a name gives a salt, the structure may show the parent alone.

SMILES	melting point
Oc1c(Cl)cccc1Cl [2,6-dichlorophenol]	67 °C
O=[N+]([O-])c1cc[n+]([O-])c(Br)c1 [2-bromo-4-nitropyridine n-oxide]	145 °C
CC(C)NC(C)C [diisopropylamine]	-61 °C
CC(=O)C=C(C)C [mesityl oxide]	-59 °C
CN(CCO)CCO [N-methyldiethanolamine]	-21 °C
c1ccc(OCC2CO2)cc1 (stereo unspecified) [glycidyl phenyl ether]	4 °C
O=Cc1cc(Cl)cc(Cl)c1 [3,5-Dichlorobenzaldehyde]	68 °C
O=S(=O)(O)CCCN1CCOCC1 [3-(Morpholin-4-yl)propane-1-sulfonic acid]	277 °C
CC12CCC(=O)CC1CCC1C2CCC2(C)C(OC=O)CCC12 (stereo unspecified) [3-oxoandrostan-17-yl formate]	125 °C
C1CC[C@H]2CCCC[C@H]2C1 [cis-decahydronaphthalene]	-43 °C
CC(Cc1oc2c(c3c(c4ccccc42)OC2CC(=O)OC32)c(=O)c1[Si](C)(C)C)O[Si](C)(C)C(C)(C)C (stereo unspecified)	190 °C
O=[N+]([O-])c1ccco1 [2-Nitrofuran]	31 °C
CCCCCCCCO [1-octanol]	-15 °C
COc1ccccc1C(=O)O [2-methoxybenzoic acid]	101 °C
Cc1cc(Br)c(C)cc1Br [2,5-Dibromo-p-xylene]	74 °C
CCC1C(=O)CCC1=O [2-ethyl-1,3-cyclopentanedione]	169 °C
Cc1ccc(O)c(Br)c1 [2-bromo-4-methylphenol]	16 °C
C(#Cc1ccc2ccccc2c1)c1ccccc1 [2-(phenylethynyl)naphthalene]	117 °C
CCOCCOC(C)=O [2-ethoxyethyl_acetate]	-61 °C
O=[N+]([O-])c1cc([N+](=O)[O-])c(C2CO2)cc1C1CO1 (stereo unspecified) [2,2'-(4,6-dinitrobenzene-1,3-diyl)dioxirane]	154 °C
CC(=O)NCO [N-(hydroxymethyl)acetamide]	50 °C
Cc1ccccc1NC=O [2-methylformanilide]	59 °C

SMILES	melting point
O=[N+]([O-])c1ccc(O)c([N+](=O)[O-])c1 [2,4-dinitrophenol]	108 °C
O=[N+]([O-])c1ccccc1I [1-iodo-2-nitrobenzene]	51 °C
CCOc1cc(C)ccc1O [2-ethoxy-4-methylphenol]	29 °C
CCCCOC(=O)[C@@H](C)Oc1ccc(Oc2ccc(C(F)(F)F)cn2)cc1	5 °C
Clc1ccc(C(c2ccccc2Cl)C(Cl)(Cl)Cl)cc1 (stereo unspecified) [2,4'-DDT]	75 °C
CNC1=CC2=NC(OC)=CC2=CC1 [2-methoxy-N-methyl-1H-indol-6-amine]	165 °C
Cc1c(C#N)c2ccccc2n1O [1-hydroxy-2-methyl-1H-indole-3-carbonitrile]	159 °C
C=CCCl [3-Chloroprop-1-ene]	-134 °C
O=C(/C(=N/Nc1cccnc1)C(=O)C(F)(F)F)c1cccs1	151 °C
OB(O)c1cccc(OC(F)(F)F)c1 [3-(trifluoromethoxy)benzeneboronic acid]	80 °C
CC(=O)c1sc(-c2ccccc2)cc1N [2-acetyl-3-amino-5-phenylthiophene]	121 °C
CCC(CC)C(=O)O [2-ethylbutyric acid]	-15 °C
ClC(Cl)C(Cl)Cl [1,1,2,2-Tetrachloroethane]	-43 °C
CC(=O)c1ccc(C#N)cc1 [p-acetyl_benzonitrile]	59 °C
O=NN1CN2CN(C1)CN(N=O)C2 [3,7-Dinitroso-1,3,5,7-tetraazabicyclo[3.3.1]nonane]	207 °C
COc1cc(C(=O)NN)cc(OC)c1O [3,5-dimethoxy-4-hydroxybenzhydrazide]	156 °C
c1ccc(CCc2ccccc2)cc1 [1,2-diphenylethane]	51.5 °C and 52 °C
O=[N+]([O-])c1ccc(Oc2ccc(C(F)(F)F)cc2[N+](=O)[O-])cc1 [fluorodifen]	94 °C
O=C(O)c1cc(B(O)O)ccc1F [3-carboxy-4-fluorobenzeneboronic acid]	218 °C
C1=C(c2ccccc2)Cc2ccccc21 [2-Phenylindene]	167 °C
O=C(C=Cc1ccccc1)C=Cc1ccccc1 [1,5-Diphenylpenta-1,4-dien-3-one]	111 °C
CC(=O)C=Cc1ccc([N+](=O)[O-])o1 [3-Buten-2-one, 4- (5-nitro-2-furanyl)-]	194 °C

Next, values leading:

melting point	SMILES
-87 °C	C[C@H]1CC[C@@H](C)CC1 [cis-1,4-dimethylcyclohexane]
102 °C	COc1ccc(Nc2ccc(OC)cc2)cc1 [4,4'-dimethoxydiphenylamine]
72 °C	CCCCCCCCCCCCCCCCCCCCCCCCCCCCCCCCC [Tritriacontane]
72 °C	CCCCOC(=O)c1ccc(O)cc1 [Mekkings B]
113 °C	NC(=O)c1ccccc1N [o-aminobenzamide]
188 °C	O=C1CC(c2ccccc2)Oc2cc(O)ccc21 (stereo unspecified) [7-hydroxyflavanone]
67 °C	COC(=O)c1ccc(C#N)cc1 [methyl 4-cyanobenzoate]
-18 °C	Cc1cccnc1 [3-picoline]
-99 °C	CCCc1ccccc1 [Propylbenzene]
292 °C	CC(N)C(=O)O (stereo in doubt) [D-Alanine]
207 °C	O=[N+]([O-])c1ccc(/C=C/c2ccc(O)cc2)cc1 [4-hydroxy-4'-nitrostilbene]
210 °C	O=C(O)c1cc(-c2ccc(F)cc2F)ccc1O [diflunisal]
99 °C	O=C(/C=C/c1ccccc1)c1ccc(Cl)cc1 [4'-chlorochalcone]
57 °C	c1ccc(-c2csc(-c3ccccn3)n2)cc1 [4-phenyl-2-(2-pyridyl)thiazole]
6 °C	ICI [diiodomethane]
140 °C	Cc1ccc[nH]c1=O [3-methyl-2-pyridone]
91 °C	Cc1[nH]n(-c2ccccc2)c(=O)c1C(=O)c1ccccc1 [4-benzoyl-3-methyl-1-phenyl-5-pyrazolinone]
99.2 °C and 101 °C and 99 °C	c1ccc2c(c1)ccc1ccccc12 [phenanthrene]
65 °C and 62.3 °C and 63 °C	COc1ccc(C=Nc2ccccc2)cc1 [N-(4-methoxybenzylidene)aniline]

melting point	SMILES
168 °C	OC[C@@H](O)[C@@H](O)[C@H](O)[C@H](O)CO [mannitol]
62 °C	COC(=O)c1ccc(C#N)cc1 [methyl_4-cyanobenzoate]
36 °C	NCCCCCO [5-amino-1-pentanol]
272 °C	O=C1OC2(c3ccccc31)c1ccc(O)c(Br)c1Oc1c2ccc(O)c1Br [4',5'-dibromofluorescein]
101 °C	CCCCCC(N)=O [hexanamide]
-10 °C	C/C=C/c1ccc(O)c(OC)c1 [isoeugenol, cis trans]
101 °C	CCOC(=O)c1ccc([N+](=O)[O-])o1 [ethyl 5-nitro-2-furoate]
263 °C	OB(O)c1ccc(F)cc1 [4-fluorobenzeneboronic acid]
118 °C	Cc1ccc(S(=O)(=O)CC(=O)O)cc1 [p-toluenesulfonylacetic acid]
300 °C	O=C(O)/C=C/C(=O)O [fumaric acid]
108 °C	CCOC(=O)Cn1cnc2ncnc(Cl)c21 [Ethyl (6-chloro-7H-purin-7-yl)acetate]
248 °C	Nc1cc(N2CCCCC2)nc(N)[n+]1[O-] [Minoxidil]
145 °C	CN(C)C(=S)NN [4,4-dimethyl-3-thiosemicarbazide]
166 °C	O=C1OC(=O)C2C3C=CC(C3)C12 (stereo not drawn) [cis-5-norbornene-endo-2,3-dicarboxylic anhydride]
153 °C	O=C(O)CCCCC(=O)O [adipic acid]
68.5 °C (2×) and 69 °C	CCCCOC(=O)c1ccc(O)cc1 [butylparaben]
209 °C	OB(O)c1cccc(-c2ccccc2)c1 [biphenyl-3-boronic acid]
150 °C	COc1ccc2c(c1)c(CC(=O)OCC(=O)O)c(C)n2C(=O)c1ccc(Cl)cc1 [acemetacin]
-89.5 °C	CC(C)O [Isopropyl Alcohol]

melting point	SMILES
296 °C	O=C1NC(=O)C(c2ccccc2)(c2ccccc2)N1 [5,5-diphenylhydantoin]
97 °C	Clc1cc(N2CCCC2)ncn1 [4-chloro-6-(1-pyrrolidinyl)pyrimidine]
230 °C	CCCCNc1cc(C(=O)O)cc(S(N)(=O)=O)c1Oc1ccccc1 [Bumetanide]
-115 °C	CCN(CC)CC [triethylamine]
212 °C	O=C(O)c1cccc([N+](=O)[O-])c1C(=O)O [3-nitrophthalic acid]
128 °C	O=C(OC1OC(=O)c2ccccc21)c1ccccc1 (stereo unspecified) [3-oxo-1,3-dihydro-2-benzofuran-1-yl benzoate]
7 °C	OC/C=C\CO [cis-2-butene-1,4-diol]
120 °C	O=C1CN(C(=O)OCc2ccccc2)CCN1 [4-benzyloxycarbonyl-2-piperazinone]
167 °C	Cc1c(C)c(C)c(C)c(C)c1C [Hexamethylbenzene]
152 °C	O=c1cc(-c2ccccc2)[nH]o1 [3-phenyl-5-isoxazolone]
181 °C	CC(C=CC=C(C)/C=C/C1=C(C)CCCC1(C)C)=CC(=O)O [Tretinoin]
296 °C and 295 °C	O=C1NC(=O)C(c2ccccc2)(c2ccccc2)N1 [phenytoin]
16 °C	C=C(C)C(=O)O [methacrylic acid]
75 °C	Nc1cn[nH]c1 [4-amino-1h-pyrazole]
275 °C	O=C1CCC(N2C(=O)c3ccccc3C2=O)C(=O)N1 (stereo unspecified) [Thalidomide]
135 °C	O[C@H](c1ccccc1)[C@@H](O)c1ccccc1 [meso-hydrobenzoin]
87 °C	COc1cc(C#N)ccc1O [4-hydroxy-3-methoxybenzonitrile]
140 °C	N#Cc1ccccc1C#N [phthalonitrile]
232 °C	C[C@H]1C[C@H]2[C@@H]3CCC4=CC(=O)C=C[C@]4(C)[C@@]3(F)[C@@H](O)C[C@]2(C)[C@@]1(O)C(=O)CO [betamethasone]
